Experimental data from paper PMC7403315, “Cyclic peptide FXII inhibitor provides safe anticoagulation in a thrombosis model and in artificial lungs” (Nature Communications, 2020).
Several values for one entry are separate records, joined by “and”; a condition that tells them apart may be missing. Identical values can stand only once. Like-named read-outs stand apart in the source and are kept apart here. Each block holds one compound with its values, some of them ahead of it. Starred links: 1 amine or outer side, 2 acyl side, 3 side chain; linkers in the order of their positions; H or OH if unused. Positions of bridges follow the written chain, without caps; N, C: chain ends. Non-standard residues stand in square brackets, D forms with d. Residues, ends and D or L forms follow the SMILES beside them. TATA = O=C(CC[*:1])N1CN(C(=O)CC[*:2])CN(C(=O)CC[*:3])C1; Phe(4-F) = N[C@@H](Cc1ccc(F)cc1)C(=O)O; β3hR = N=C(N)NCCC[C@H](N)CC(=O)O

Assays:
[1] = biological target: T1, Mouse α-FXIIa (Mus musculus, UniProt Q80YC5); test: FXIIa protease inhibition assay with fluorogenic substrate Boc-Gln-Gly-Arg-AMC; type: biochemical
T1 construct: Mouse α-FXIIa; purchased Molecular Innovations MFXIIA
T1 sequence (Q80YC5 355-597 limits assumed): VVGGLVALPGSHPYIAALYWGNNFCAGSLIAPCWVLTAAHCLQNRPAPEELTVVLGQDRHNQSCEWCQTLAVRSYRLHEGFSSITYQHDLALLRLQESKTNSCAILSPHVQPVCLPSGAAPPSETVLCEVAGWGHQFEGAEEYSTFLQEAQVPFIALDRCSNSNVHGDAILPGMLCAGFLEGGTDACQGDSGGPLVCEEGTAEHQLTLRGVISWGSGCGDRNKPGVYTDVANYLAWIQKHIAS
T1 sequence (Q80YC5 20-354 limits assumed): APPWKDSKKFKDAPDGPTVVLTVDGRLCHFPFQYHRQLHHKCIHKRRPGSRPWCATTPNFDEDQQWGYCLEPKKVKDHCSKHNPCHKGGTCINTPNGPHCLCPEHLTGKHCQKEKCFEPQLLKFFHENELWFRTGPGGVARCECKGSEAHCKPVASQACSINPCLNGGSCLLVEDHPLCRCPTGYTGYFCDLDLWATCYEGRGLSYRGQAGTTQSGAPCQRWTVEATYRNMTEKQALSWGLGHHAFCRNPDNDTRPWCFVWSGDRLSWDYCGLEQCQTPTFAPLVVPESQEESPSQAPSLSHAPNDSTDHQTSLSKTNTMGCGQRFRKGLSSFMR
How it was run: (§1)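 Mouse α-FXIIa or human β-FXIIa (0.4 nM final) was preincubated with bicyclic peptide for 10 min at 25 °C in Tris-Cl buffer with 1% DMSO. Residual activity was then read over 30 min with 50 µM Boc-Gln-Gly-Arg-AMC (ex 368/em 467 nm). IC50 came from sigmoidal fits, and Ki was derived by Cheng-Prusoff.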

[2] = biological target: T2, human β-FXIIa (Homo sapiens, UniProt P00748); test: as above; type: biochemical
T2 construct: human β-FXIIa (Molecular Innovations cat #); purchased Molecular Innovations HFXIIAB; host or cells: human blood
T2 sequence (P00748 373-615 limits assumed, other chains not shown): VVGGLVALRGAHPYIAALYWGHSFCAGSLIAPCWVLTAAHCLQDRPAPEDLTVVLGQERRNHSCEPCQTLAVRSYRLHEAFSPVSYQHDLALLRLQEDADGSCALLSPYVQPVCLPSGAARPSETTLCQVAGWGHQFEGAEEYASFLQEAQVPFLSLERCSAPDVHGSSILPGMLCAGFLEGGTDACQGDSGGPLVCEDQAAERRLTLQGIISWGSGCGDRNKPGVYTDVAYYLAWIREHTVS
How it was run: as §1

[3] = crude, coumarin labeled peptides, individual plates
[4] = inhibitor 0.488281 nM, 0.000488281 µM
[5] = inhibitor 1.95312 nM, 0.00195312 µM
[6] = inhibitor 3.90625 nM, 0.00390625 µM
[7] = inhibitor 7.8125 nM, 0.0078125 µM
[8] = inhibitor 15.625 nM, 0.015625 µM
[9] = inhibitor 0.976562 / 0.976563 nM, 0.000976563 µM

IC50 [1, 3]: 290 nM and 312 nM and 236 nM and 289 nM and 257 nM and 228 nM and 245 nM and 286 nM and 358 nM
Ki ([1]; purified peptide without coumarin label, read-out: Ki mouse FXIIa): 86 ± 9 nM
IC50 [2, 3]: 18.4 nM and 23.5 nM and 23.3 nM and 27.9 nM
Residual activity of human FXIIa [2, 4]: 96.6624% and 92.9553%
remaining activity at 0.000488281 µM ([2]; inhibitor 0.488281 nM, read-out: Residual activity of human FXIIa): 98.6%
Residual activity of human FXIIa [2, 5]: 84.5129% and 82.3772%
remaining activity at 0.00195312 µM ([2]; inhibitor 1.95312 nM, read-out: Residual activity of human FXIIa): 85.8%
Residual activity of human FXIIa [2, 6]: 70.1534% and 69.6521%
remaining activity at 0.00390625 µM ([2]; inhibitor 3.90625 nM, read-out: Residual activity of human FXIIa): 75.7%
Residual activity of human FXIIa [2, 7]: 55.0198% and 53.6523%
remaining activity at 0.0078125 µM ([2]; inhibitor 7.8125 nM, read-out: Residual activity of human FXIIa): 59.1%
Residual activity of human FXIIa [2, 8]: 36.7931% and 38.5109%
remaining activity at 0.015625 µM ([2]; inhibitor 15.625 nM, read-out: Residual activity of human FXIIa): 39.2%
Residual activity of human FXIIa ([2]; inhibitor 31.25 nM, 0.03125 µM): 21.9721% and 22.4384%
remaining activity at 0.03125 µM ([2]; inhibitor 31.25 nM, read-out: Residual activity of human FXIIa): 24.9%
Residual activity of human FXIIa ([2]; inhibitor 62.5 nM, 0.0625 µM): 12.1968% and 13.3118%
remaining activity at 0.0625 µM ([2]; inhibitor 62.5 nM, read-out: Residual activity of human FXIIa): 14%
Residual activity of human FXIIa ([2]; inhibitor 125 nM, 0.125 µM): 6.613% and 11.4379%
remaining activity at 0.125 µM ([2]; inhibitor 125 nM, read-out: Residual activity of human FXIIa): 7.65%
remaining activity at […] ([2]; inhibitor 250 nM, read-out: Residual activity of human FXIIa): 3.83%
Residual activity of human FXIIa ([2]; inhibitor 500 nM, 0.5 µM): 2.542% and 2.502%
remaining activity at 0.5 µM ([2]; inhibitor 500 nM, read-out: Residual activity of human FXIIa): 2.52%
Residual activity of human FXIIa [2, 9]: 92.5507% and 90.2369%
remaining activity at 0.000976563 µM ([2]; inhibitor 0.976562 / 0.976563 nM, read-out: Residual activity of human FXIIa): 96.2%
Ki ([2]; purified peptide without coumarin label, read-out: Ki human FXIIa): 8.1 ± 0.7 nM
SMILES: CC(C)C[C@@H]1NC(=O)[C@H](CCC(N)=O)NC(=O)[C@H](CCCNC(=N)N)NC(=O)[C@@H]2CSCCC(=O)N3CN(CN(C3)C(=O)CCSC[C@H](NC(=O)[C@@H](N)CCCNC(=N)N)C(=O)N[C@@H](Cc3ccccc3)C(=O)N[C@@H](CCCNC(=N)N)C(=O)N[C@@H](CC(C)C)C(=O)N3CCC[C@H]3C(=O)N2)C(=O)CCSC[C@@H](C(=O)N[C@@H](CCCNC(=N)N)C(N)=O)NC(=O)[C@H](CCCNC(=N)N)NC1=O [FXII618]

SMILES: CC(C)C[C@@H]1NC(=O)[C@H](CCC(N)=O)NC(=O)[C@H](Cc2c[nH]cn2)NC(=O)[C@@H]2CSCCC(=O)N3CN(CN(C3)C(=O)CCSC[C@H](NC(=O)[C@@H](CO)NC(=O)[C@H](N)CCCNC(=N)N)C(=O)N[C@@H](Cc3ccc(F)cc3)C(=O)N[C@@H](CCCNC(=N)N)C(=O)N[C@@H](CC(C)C)C(=O)N3CCC[C@H]3C(=O)N2)C(=O)CCSC[C@@H](C(N)=O)NC(=O)C[C@H](CCCNC(=N)N)NC1=O [FXII900] (H-[dR][dS]C[Phe(4-F)]RLPCHQL[β3hR]C-NH2; linker 3-8-13 via TATA)
Ki [1]: 0.45 ± 0.11 nM
Ki [2]: 0.37 ± 0.04 nM
Residual activity of human FXIIa ([2]; inhibitor 0.030518 nM, 30.52 pM): 89.8015%
Residual activity of human FXIIa ([2]; inhibitor 0.03125 nM, 31.25 pM): 91.2184% and 98.3306%
Residual activity of human FXIIa ([2]; inhibitor 0.061035 nM, 61.04 pM): 87.3761%
Residual activity of human FXIIa ([2]; inhibitor 0.0625 nM, 62.5 pM): 92.1225% and 95.5725%
Residual activity of human FXIIa ([2]; inhibitor 0.12207 nM, 0.00012207 µM): 78.5763%
Residual activity of human FXIIa ([2]; inhibitor 0.125 nM, 0.000125 µM): 82.8895% and 92.0812%
Residual activity of human FXIIa ([2]; inhibitor 0.244141 nM, 0.000244141 µM): 65.9451%
Residual activity of human FXIIa [2, 4]: 44.4485%
Residual activity of human FXIIa ([2]; inhibitor 0.5 nM, 0.0005 µM): 54.1096% and 47.3759%
Residual activity of human FXIIa ([2]; inhibitor 1 nM, 0.001 µM): 29.6346% and 29.527%
Residual activity of human FXIIa [2, 5]: 9.983% and 4.833%
Residual activity of human FXIIa ([2]; inhibitor 2 nM, 0.002 µM): 13.0658% and 11.4779%
Residual activity of human FXIIa [2, 6]: 2.681% and 0.3074%
Residual activity of human FXIIa ([2]; inhibitor 4 nM, 0.004 µM): 2.623% and 4.603% and 9.7%
Residual activity of human FXIIa [2, 7]: 1.017% and -0.1178%
Residual activity of human FXIIa ([2]; inhibitor 8 nM, 0.008 µM): 0.8848% and 2.033% and 3.493%
Residual activity of human FXIIa [2, 8]: 1.594% and 0.3357%
Residual activity of human FXIIa [2, 9]: 20.4026%
remaining activity at 30.52 pM ([2]; read-out: Residual activity of human FXIIa, inhibitor 0.030518 nM): 92.8%
remaining activity at 31.25 pM ([2]; read-out: Residual activity of human FXIIa, inhibitor 0.03125 nM): 90.7%
remaining activity at 61.04 pM ([2]; read-out: Residual activity of human FXIIa, inhibitor 0.061035 nM): 102%
remaining activity at 62.5 pM ([2]; read-out: Residual activity of human FXIIa, inhibitor 0.0625 nM): 89.8%
remaining activity at 0.00012207 µM ([2]; read-out: Residual activity of human FXIIa, inhibitor 0.12207 nM): 77.3%
remaining activity at 0.000125 µM ([2]; read-out: Residual activity of human FXIIa, inhibitor 0.125 nM): 80.4%
remaining activity at 0.000244141 µM ([2]; read-out: Residual activity of human FXIIa, inhibitor 0.244141 nM): 66.6%
remaining activity at 0.000488281 µM ([2]; read-out: Residual activity of human FXIIa, inhibitor 0.488281 nM): 51.8%
remaining activity at 0.0005 µM ([2]; read-out: Residual activity of human FXIIa, inhibitor 0.5 nM): 46.7%
remaining activity at 0.001 µM ([2]; read-out: Residual activity of human FXIIa, inhibitor 1 nM): 24.6%
remaining activity at 0.002 µM ([2]; read-out: Residual activity of human FXIIa, inhibitor 2 nM): 8.92%
remaining activity at 0.03125 µM ([2]; read-out: Residual activity of human FXIIa, inhibitor 31.25 nM): 0%
remaining activity at 0.000976563 µM ([2]; read-out: Residual activity of human FXIIa, inhibitor 0.976562 / 0.976563 nM): 29.9%
